Assay results from US11241480B2, “Methods for modulation of dietary and microbial exposure with compositions comprising an EGFR ligand” (Washington University, priority 2017, dated 2022).
Entries after “also recorded” stand apart in the source; their conditions may differ.

Tests used:
[1] = tested on: colonic LP-APCs (LP-MNPs); assay: Luminal antigen delivery to LP-APCs/LP-MNPs, read out by ex vivo T cell co-culture; format: in vivo, mice; settings: for luminal antigen uptake by colonic APCs (expansion of Ova-specific T-cells): DOL 18 mice, agent concurrent with luminal Ova
Protocol: Analysis of luminal antigen delivery to LP-DCs: Mice received Ova 20 g/L (Sigma Aldrich) for 3 days prior to isolation of LP-APCs (dietary Ova FIG. 1C) or were anesthetized and 2 mg Ova (OTI assay) or 25 mg Ova (OTII assay) dissolved in phosphate buffered saline (PBS), or PBS alone (controls), was injected intraluminally into the SI or colon as previously described. Two hours later cell populations were isolated from the non-Peyer's patch bearing SI LP or non-colonic patch bearing colon LP. APC populations and Ova specific […] T-cells were isolated with flow cytometric cell sorting and cultured at a ratio of 1:10 APCs (1×10^4) to T-cells (1×10^5). As a positive control, 10 μg Ova was added to cultures of APC populations isolated from mice receiving luminal PBS. After 3 days, cultures were evaluated for the number of T-cells by flow cytometry and cell counting.
LP-MNP/T cell co-culture: 1×10^5 flow cytometrically sorted splenic CD3+CD4+Vβ8.3+ CBir1 T cells or 1×10^5 flow cytometrically sorted splenic CD3^+CD4^+Vα2^+Vβ5^+ OTI T cells were cultured with […] CD45+ MHCII+ CD11c+ flow cytometrically sorted SI or colonic LP-MNPs isolated from mice two hours following intraluminal administration of 2 mg Ova or PBS. Some wells were cultured with 10 μg Ova or 10 μg CBir1 Flagellin as a positive control. After three days, cultured cells were counted and analyzed by flow cytometry to determine absolute number of transgenic cells to calculate fold increase of T cells.

[2] = tested on: goblet cell associated antigen passages (GAPs); assay: Enumeration of goblet cell associated antigen passages (GAPs) in SI and colon by in vivo two-photon imaging and fixed sections; set-up: species or system mice
Protocol: Intravital two-photon (2P) microscopy: Mice were anesthetized using nebulized isofluorane in 95% O2/5% CO2. Intravital preparation of the intestine was performed as previously described. To detect GAPs, lysine fixable fluorescently-labeled dextran 10,000 MW (10 mg/mL) and diamidino-2-phenylindole (DAPI; 10 mg/mL) were injected intraluminally 20 minutes prior to imaging, and imaging was performed for up to one hour. To detect paracellular leak fluorescently labeled dextran 3,000 MW (10 mg/mL) and DAPI (10 mg/mL) were injected intraluminally 20 minutes prior to imaging. To detect the extension of trans-epithelial dendrites by APCs, CD11c^YFP or CX3CR1^GFP were imaged as above using 10,000 MW fluorescent dextran to outline the epithelial surface. Tissues were excited using a Ti:sapphire laser tuned to 890 nm (Chameleon X R, Coherent). Time-lapse imaging was performed with a custom-built 2P microscope running ImageWarp acquisition software (A&B Software, New London, Conn.). Epithelial integrity was assessed by dextran and DAPI staining as described. Following imaging, tissues were placed in 10% formalin buffered phosphate solution (Fisher Scientific) to fix dextrans in place to confirm 2P findings and for further analysis by immunofluorescence microscopy.
In some experiments mice were treated with 150 μg/kg carbachol chloride i.p. 10 minutes before dextran, 100 mg/kg tropicamide (mAChR4 selective antagonist) i.p. 20 minutes before dextran, 500 μg/kg tyrphostin AG1478 (inhibitor of EGFR phosphorylation) i.p. 20 minutes before dextran, 10 mg/kg U-0126 (inhibitor of p42/p44 MAPK phosphorylation) i.p. 20 minutes before dextran, 1-1000 ng EGF (Shenandoah Biotechnologies) injected intraluminally 20 minutes before dextran, 10 μg LPS injected intraluminally 20 minutes before dextran, or 100 μl stomach contents from a DOL 10 mice, or 100 μl heat killed cecal contents from SPF housed adult mice injected intraluminally 20 minutes before dextran was administered. All reagents from Sigma Aldrich, St. Louis, Mo. unless otherwise noted.
Enumeration of GAPs: GAPs were identified as dextran-filled columns measuring approximately 20 μm (height)×5 μm (diameter) traversing the epithelium and containing a nucleus. GAPs were enumerated in the jejunum or mid-transverse colon using Z-stack images of a volume of 225 μm(x) by 250 μm(y) by 50 μm(z) acquired during in vivo 2P imaging as described above. SI GAPs were enumerated as GAPs per villus. When present, colonic GAPs were found on both the surface epithelium and within the crypts, but were enumerated as GAPs per crypt due to difficulty in distinguishing dextran filled GAPs from luminal dextran during in vivo imaging. De-identified and coded video clips were evaluated by a blinded investigator to enumerate GAPS in early life. The number of GAPs per villus and GAPs per crypt seen by 2P imaging were confirmed by immunofluorescence microscopy of tissues that were fixed following 2P imaging. To quantify GAPs per GC, lysine fixable 10,000 MW fluorescent dextran was injected into the lumen and intestines harvested 25 min later. Tissues were fixed with 10% formalin buffered saline for 45 min, sectioned, and stained with antibodies directed against cyt18. GCs were identified cyt18+ epithelial cells with GC morphology and GAPs as dextran containing epithelial cells defined as above.
Intravital two-photon (2P) microscopy: Mice were anesthetized using nebulized isofluorane in 95% O2/5% CO2. Intravital preparation of the intestine was performed as previously described. To detect GAPs, tetramethylrodamine labeled dextran 10,000 MW (10 mg/mL) or fluorescein labeled dextran 10,000 MW (10 mg/mL) and diamidino-2-phenylindole (DAPI; 10 mg/mL) were injected intraluminally 20 minutes prior to imaging and imaging was performed for up to one hour. Tissues were excited using a Ti:sapphire laser tuned to 890 nm (Chameleon XR, Coherent). […]

C57BL/6 mice = assay: Oral tolerance and delayed type hypersensitivity (DTH) response to Ova; format: in vivo
Protocol: Antibiotic treatment: Mice were given a combination of antibiotics (Abx) ampicillin (1 g/L), metronidazole (1 g/L), neomycin (1 g/L), and vancomycin (500 mg/L) in drinking water for the time periods outlined in the figure legends.
EGFRi treatment: Mice were injected with 500 μg/kg tyrphostin AG1478 (an inhibitor of EGFR phosphorylation) in the neonatal, post-neonatal, or weaned phase on DOLs noted in the text or figure legends.
Oral tolerance and Delayed Type Hypersensitivity Responses: Mice, and/or nursing dams, when treated prior to weaning, were given Ova 20 g/L in drinking water, or drinking water alone for the intervals defined in the figure legend. Four weeks and six weeks following dietary Ova exposure mice were immunized subcutaneously with 100 μg Ova in incomplete Freund's Adjuvant (Sigma Aldrich). Two weeks after the last immunization mice were challenged with 20 μg Ova in the footpad, body temperature monitored for one hour, and the increase in footpad thickness evaluated using measurements taken with micrometer calipers taken before and 24 hours after challenge. To directly evaluate colonic antigen delivery and blockade of GAPs in the development of tolerance, enemas containing Ova 10 μg/gm body weight with or without 10 μg EGF were administered intrarectally every other day five times from DOL 14 to 22 (post-neonatal phase) or DOL 56 to 64 (adult). Mice were rested three weeks, and then systemically immunized and challenged in the footpad as above.

[3] = dietary Ova DOL 0-30, EGFRi DOL 6 and 8 or DOL 24 and 26

Row | Molecule | capacity of colonic LP-MNPs to stimulate CBir1 T cells ex vivo ([1]; post-weaning mice (DOL28), EGFR inhibition DOL24 and 26) | GAP formation in SI and colon ([2]; DOL 8 mice (neonatal phase)) | SI GAP formation ([2]; DOL 18 mice) | colonic GAP formation ([2]; DOL 28, post weaning) | GAP formation in the SI and colon ([2]; all phases of early life (DOL8, 18, 28)) | lethargy/hypothermia upon rechallenge with sterile Ova in the footpad (C57BL/6 mice; [3]) | oral tolerance (footpad swelling upon Ova rechallenge) (C57BL/6 mice; [3]) | lethargy/hypothermia upon rechallenge with sterile Ova in the footpad (C57BL/6 mice; dietary Ova DOL 0-30, EGFRi DOL 6 and 8 or DOL 24 and 26, listed as inhibitor of EGFR activation) | luminal antigen uptake by colonic APCs (expansion of Ova-specific T-cells) [1] | luminal antigen uptake by colonic APCs (expansion of Ova-specific T-cells) ([1]; listed as recombinant EGF) | colonic GAP formation / dextran uptake by colonic epithelial cells ([2]; DOL 14 mice (post-neonatal phase), wildtype) | colonic GAP formation ([2]; DOL 18 mice (post-neonatal phase), agent given luminally) | luminal EGF concentration below which colonic and SI GCs formed GAPs (a concentration that inhibits GAPs on short term exposure) ([2]; DOL ~10 (colon) and DOL ~18 (SI)) [µg/mL] | tolerance to luminal Ova (DTH, footpad thickness) (C57BL/6 mice; Ova enemas with EGF every other day DOL 14-22 (post-neonatal phase colon))
1 | COc1cc2ncnc(Nc3cccc(Cl)c3)c2cc1OC [EGFRi, tyrphostin AG1478] | allowed colonic LP-MNPs from post-weaning mice to capture microbial antigen to stimulate CBir1 T cells ex-vivo | induced colonic and SI GAPs | induced | induced | allowed GAP formation in the SI and colon during all phases of early life | lethargic and hypothermic | significantly abrogated | developed hypothermia | – | – | – | – | – | –
2 | EGF: recombinant murine EGF (Shenandoah); EGFR ligand, given luminally or intracolonically | – | – | – | – | – | – | – | – | impaired at expanding Ova-specific T-cells | inhibited GAPs and luminal antigen loading of LP-MNPs | inhibited | inhibited GAPs | < 1000 | abrogated tolerance to luminal Ova; also recorded: attenuates tolerance to a luminal antigen
